Experimental data taken from EP0326490B2, “Synthetic peptides and mixtures thereof for detecting HIV antibodies” (ADALTIS INC., priority 1988, dated 2004).
Positions of bridges follow the written chain, without caps; N, C: chain ends. Residues, ends and D or L forms follow the SMILES beside them.

Tests used:
[1] = test system: HIV-2 positive sera; assay: ELISA, single peptides identifying HIV-2 positive sera; assay type: binding, human; conditions: single peptide
Method: A preferred convenient and classical technique for the determination of antibodies against AIDS virus using a peptide or a peptide mixture of the present invention is an enzyme-linked immunosorbent assay (ELISA). According to this test a peptide or a peptide mixture of the present invention is adsorbed onto the wells of a microtiter plate. The wells are then treated with sera to be tested. After washing, anti-human IgG labeled with peroxidase is added to the wells. The determination of the peroxidase is performed with a corresponding substrate, e.g. with o-phenylene diamine. Also in this procedure the peroxidase can be exchanged by another label, e.g. by a radioactive or fluorescence label. […]
TABLE 4 provides the results of single peptides which were individually evaluated in identifying known HIV-2 positive sera.
Each well of the microtiter plate is saturated with 100 µl of a solution containing a peptide or mixture of peptides (5 µg/ml) and left overnight. […] Serum samples to be analyzed are diluted with specimen buffer (washing buffer plus casein, 0.05% w/v). […] After 10 minutes the contents of each well is treated with 0.1 ml 2N H2SO4 and the optical density read at 450 nm. […]

[2] = test system: HIV-1 positive sera; assay: ELISA, single peptides identifying HIV-1 positive sera; assay type: binding, human; conditions: single gp41 or gp120 peptide
Method: According to this test a peptide or a peptide mixture of the present invention is adsorbed onto the wells of a microtiter plate. The wells are then treated with sera to be tested. After washing, anti-human IgG labeled with peroxidase is added to the wells. The determination of the peroxidase is performed with a corresponding substrate, e.g. with o-phenylene diamine. Also in this procedure the peroxidase can be exchanged by another label, e.g. by a radioactive or fluorescence label.
(§1) Each well of the microtiter plate is saturated with 100 µl of a solution containing a peptide or mixture of peptides (5 µg/ml) and left overnight. The wells are emptied and washed twice with a washing buffer (Tris, 0.043M; NaCl, 0.5M;thimerosal, 0.01% w/v; Tween 20, 0.05% v/v; pH 7.4). The wells are then saturated with […] of washing buffer for 1 hr. at 37°C and washed once with the same buffer. Serum samples to be analyzed are diluted with specimen buffer (washing buffer plus casein, 0.05% w/v). The bells are rinsed with washing buffer prior to the addition of the diluted serum sample (0.1 ml). These are left to incubate for 1 hr. at room temperature. The wells are then emptied, washed twice rapidly and then once for two minutes with washing buffer. […] The wells are then emptied and washed twice rapidly with washing buffer and then five times in which the buffer was in contact with the well 2 minutes per washing. The substrate solution (3,3', 5,5'-tetramethylbenzidine, 8 mg per ml of DMSO) is diluted with 100 volumes 0.1 M citrate-acetate buffer, pH 5.6 containing 0.1% v/v of 30% H2O2 and added to each well (0.1 ml per well). After 10 minutes the contents of each well is treated with 0.1 ml 2N H2SO4 and the optical density read at 450 nm. All determinations are done in duplicate.

[3] = test system: HIV-1-antibodies; assay: ELISA optical density of serially diluted sera, cyclic versus non-cyclic peptides; assay type: binding, human; conditions: coated at 0.5 µg/ml
From the text: TABLE 5 is provided to illustrate the sensitivity of cyclic versus non-cyclic peptides in the ELISA test by comparing the results of some sera at various dilutions.
Even though results presented in TABLE 5 clearly show the superiority of cyclic peptides over their linear counterpart in detecting HIV-1-antibodies, that increased sensitivity could have been underestimated because of probable cyclization and polymerization of the linear peptide after solubilization in a carbonate buffer (pH 9.6). That experiment was repeated with the linear 87 and cyclic 87c peptides dissolved in a carbonate buffer (pH 9.6) as before and also in 10% acetic acid (pH 2.7). […] It is believed that cyclization and polymerization also occured in the wells of the microtiter plates although the exact proportion of cyclic peptide bound to the plates versus linear has not been as yet determined. […]
as §1

[4] = test system: HIV-1 positive serum samples; assay: ELISA serum titers on plates coated with cyclic versus linear peptide; assay type: binding, human; conditions: for serum titer (serum dilution giving an absorbancy reading of 1.0): coated at 10 µg/ml
From the text: (§2) Even though results presented in TABLE 5 clearly show the superiority of cyclic peptides over their linear counterpart in detecting HIV-1-antibodies, that increased sensitivity could have been underestimated because of probable cyclization and polymerization of the linear peptide after solubilization in a carbonate buffer (pH 9.6). That experiment was repeated with the linear 87 and cyclic 87c peptides dissolved in a carbonate buffer (pH 9.6) as before and also in 10% acetic acid (pH 2.7). […] It is believed that cyclization and polymerization also occured in the wells of the microtiter plates although the exact proportion of cyclic peptide bound to the plates versus linear has not been as yet determined.
Plates used in this experiment were coated with solutions of peptides at 10 µg/ml. (Experimental results of TABLE 5 were obtained with plates coated with peptides at 0.5 µg/ml). Four different HIV-1 positive serum samples were serially diluted and their titers determined. The titer was defined as the serum dilution giving an absorbancy reading of 1.0 in the conditions of the ELISA procedure already described.
The ratios of sensitivities measured with the cyclic peptide over the linear 87 peptide vary between 1.3 and 2.2 with an average of 1.8. These ratios are even larger, varying from 3.0 to 4.5, when the sensitivity of the ELISA test using the cyclic 87c peptide is compared using conditions (acidic pH) where the linear 87 peptide remains linear and is not allowed to cyclize or polymerize.
as §1

[5] = Stability of linear and cyclic peptide in coating buffers (HPLC, Ellman's test); assay type: physicochemical; conditions: 10% acetic acid (pH 2.7)
From the text: as §2

## CC[C@H](C)[C@H](NC(=O)[C@H](CCC(=O)O)NC(=O)[C@@H](NC(=O)[C@@H](N)CC(C)C)C(C)C)C(=O)N[C@H](C(=O)N1CCC[C@H]1C(=O)N[C@H](C(=O)NCC(=O)N[C@@H](Cc1ccccc1)C(=O)N[C@@H](C)C(=O)N1CCC[C@H]1C(=O)N[C@H](C(=O)N[C@@H](CCCCN)C(=O)N[C@@H](CCC(=O)O)C(=O)N[C@@H](CCCCN)C(=O)N[C@@H](CCCNC(=N)N)C(=O)O)[C@@H](C)O)[C@@H](C)CC)[C@@H](C)O [Peptide 204]
[1]
  %Positive sera correctly Identified: 100%

## CC[C@H](C)[C@H](NC(=O)[C@H](CCC(=O)O)NC(=O)[C@@H](NC(=O)[C@@H](N)CC(C)C)C(C)C)C(=O)N[C@H](C(=O)N1CCC[C@H]1C(=O)N[C@H](C(=O)NCC(=O)N[C@@H](Cc1ccccc1)C(=O)N[C@@H](C)C(=O)N1CCC[C@H]1C(=O)N[C@H](C(=O)N[C@@H](CCCCN)C(=O)N[C@@H](CCC(=O)O)C(=O)N[C@@H](CCCCN)C(=O)N[C@@H](CCCNC(=N)N)C(=O)N[C@@H](Cc1ccc(O)cc1)C(=O)N[C@@H](CO)C(=O)N[C@@H](CO)C(=O)N[C@@H](C)C(=O)N[C@@H](Cc1c[nH]cn1)C(=O)NCC(=O)N[C@@H](CCCNC(=N)N)C(=O)O)[C@@H](C)O)[C@@H](C)CC)[C@@H](C)O [Peptide 203]
[1]
  %Positive sera correctly Identified: 100%

## CC[C@H](C)[C@H](NC(=O)CNC(=O)[C@H](CC(C)C)NC(=O)[C@H](CC(C)C)NC(=O)[C@H](CCC(N)=O)NC(=O)[C@H](CCC(N)=O)NC(=O)[C@H](CC(=O)O)NC(=O)[C@H](CCCCN)NC(=O)[C@H](CC(C)C)NC(=O)[C@H](Cc1ccc(O)cc1)NC(=O)[C@H](CCCNC(=N)N)NC(=O)[C@H](CCC(=O)O)NC(=O)[C@@H](NC(=O)[C@H](C)NC(=O)[C@H](CC(C)C)NC(=O)[C@@H](NC(=O)[C@@H](N)CCCNC(=N)N)[C@@H](C)CC)C(C)C)C(=O)N[C@@H](Cc1c[nH]c2ccccc12)C(=O)NCC(=O)N[C@H]1CSSC[C@@H](C(=O)N[C@H](C(=O)N[C@H](C(=O)N[C@@H](C)C(=O)N[C@H](C(=O)N2CCC[C@H]2C(=O)N[C@@H](Cc2c[nH]c3ccccc23)C(=O)N[C@@H](CC(N)=O)C(=O)N[C@@H](C)C(=O)N[C@@H](CO)C(=O)O)C(C)C)[C@@H](C)O)[C@@H](C)O)NC(=O)[C@H]([C@@H](C)CC)NC(=O)[C@H](CC(C)C)NC(=O)[C@H](CCCCN)NC(=O)CNC(=O)[C@H](CO)NC1=O [Peptide 87c] (H-RILAVERYLKDQQLLGIWGCSGKLICTTAVPWNAS-OH; disulfide 20-26)
[2]
  % Positive Sera correctly Idenfitied: 99%
[3]; serum 87V103, dilution 1/50
  Relative performance in ELISA (optical density): 0.011 optical density units
[3]; serum 1428, dilution 1/50
  Relative performance in ELISA (optical density): >2.0 optical density units
[3]; serum M-5, dilution 1 50
  Relative performance in ELISA (optical density): >2.0 optical density units
[3]; serum M-5, dilution 1/100
  Relative performance in ELISA (optical density): >2.0 optical density units
[3]; serum M-5, dilution 1/200
  Relative performance in ELISA (optical density): >2.0 optical density units
[3]; serum M-5, dilution 1/400
  Relative performance in ELISA (optical density): >2.0 optical density units
[3]; serum M-5, dilution 1/800
  Relative performance in ELISA (optical density): 1.854 optical density units
[3]; serum M-7, dilution 1/50
  Relative performance in ELISA (optical density): >2.0 optical density units
[3]; serum M-7, dilution 1/100
  Relative performance in ELISA (optical density): >2.0 optical density units
[3]; serum M-7, dilution 1/200
  Relative performance in ELISA (optical density): 1.729 optical density units
[3]; serum M-7, dilution 1/400
  Relative performance in ELISA (optical density): 1.348 optical density units
[3]; serum M-7, dilution 1/800
  Relative performance in ELISA (optical density): 0.611 optical density units
[3]; serum M-8, dilution 1/50
  Relative performance in ELISA (optical density): >2.0 optical density units
[3]; serum M-8, dilution 1/100
  Relative performance in ELISA (optical density): >2.0 optical density units
[3]; serum M-8, dilution 1/200
  Relative performance in ELISA (optical density): 1.655 optical density units
[3]; serum M-8, dilution 1/400
  Relative performance in ELISA (optical density): 1.064 optical density units
[3]; serum M-8, dilution 1/800
  Relative performance in ELISA (optical density): 0.384 optical density units
[3]; serum M-16, dilution 1/50
  Relative performance in ELISA (optical density): >2.0 optical density units
[3]; serum M-16, dilution 1/100
  Relative performance in ELISA (optical density): >2.0 optical density units
[3]; serum M-16, dilution 1/200
  Relative performance in ELISA (optical density): >2.0 optical density units
[3]; serum M-16, dilution 1/400
  Relative performance in ELISA (optical density): >2.0 optical density units
[3]; serum M-16, dilution 1/800
  Relative performance in ELISA (optical density): 1.962 optical density units
[4]; 10% Acetic Acid (pH 2.7), serum M-5
  A B (titer 87c cyclic over titer 87 linear): 3.0
[4]; 10% Acetic Acid (pH 2.7), serum M-7
  A B (titer 87c cyclic over titer 87 linear): 3.9
[4]; 10% Acetic Acid (pH 2.7), serum M-8
  A B (titer 87c cyclic over titer 87 linear): 4.5
[4]; 10% Acetic Acid (pH 2.7), serum M-16
  A B (titer 87c cyclic over titer 87 linear): 3.7
[4]; Carbonate Bicarbonate 0.1M (pH 9.6), serum M-5
  A B (titer 87c cyclic over titer 87 linear): 1.3
[4]; Carbonate Bicarbonate 0.1M (pH 9.6), serum M-7
  A B (titer 87c cyclic over titer 87 linear): 1.8
[4]; Carbonate Bicarbonate 0.1M (pH 9.6), serum M-8
  A B (titer 87c cyclic over titer 87 linear): 2.2
[4]; Carbonate Bicarbonate 0.1M (pH 9.6), serum M-16
  A B (titer 87c cyclic over titer 87 linear): 1.7
[4]; carbonate buffer (pH 9.6), average over four sera
  ratios of sensitivities measured with the cyclic peptide over the linear 87 peptide, average: 1.8
[4]; coating buffer 10% Acetic Acid (pH 2.7), serum M-5
  serum titer (serum dilution giving an absorbancy reading of 1.0): 13 500
[4]; coating buffer 10% Acetic Acid (pH 2.7), serum M-7
  serum titer (serum dilution giving an absorbancy reading of 1.0): 9 000
[4]; coating buffer 10% Acetic Acid (pH 2.7), serum M-8
  serum titer (serum dilution giving an absorbancy reading of 1.0): 6 300
[4]; coating buffer 10% Acetic Acid (pH 2.7), serum M-16
  serum titer (serum dilution giving an absorbancy reading of 1.0): 56 000
[4]; coating buffer Carbonate Bicarbonate 0.1M (pH 9.6), serum M-5
  serum titer (serum dilution giving an absorbancy reading of 1.0): 13 500
[4]; coating buffer Carbonate Bicarbonate 0.1M (pH 9.6), serum M-7
  serum titer (serum dilution giving an absorbancy reading of 1.0): 11 000
[4]; coating buffer Carbonate Bicarbonate 0.1M (pH 9.6), serum M-8
  serum titer (serum dilution giving an absorbancy reading of 1.0): 6500
[4]; coating buffer Carbonate Bicarbonate 0.1M (pH 9.6), serum M-16
  serum titer (serum dilution giving an absorbancy reading of 1.0): 56 000
[5]
  stability in solution (HPLC, Ellman's test): remained cyclic
